According to patent publication US10160729B2, “Hsp70 modulators and methods for making and using the same” (Memorial Sloan Kettering Cancer Center, priority 2014, dated 2018):

Tested on: MOLM-13 cells
Test: Caspase cleavage assay (Caspase3, 7 activation)
Type: cell-based
Details: Homo sapiens, 16 h treatment, caspase substrate Z-DEVD-R110, read-out: c* Concentration at which 50% of the maximum signal was achieved (caspase activation)
Protocol: Caspase3, 7 Activation. MOLM-13 cells (30,000 cells/well) were plated in black 96-well plates (Corning Cat. #3603) in 40 μL of RPMI media, and left in an incubator (37° C., 5% CO2) for up to 24 h. Cells were treated for 16 h with compounds or DMSO (control) at desired concentrations in 50 μL of media. Drugs were added in triplicate wells. Following exposure of cells to Hsp70 inhibitors, 50 μL of buffer containing 10 mM HEPES (pH 7.5), 2 mM EDTA, 0.1% CHAPS and the caspase substrate Z-DEVD-R110 at 25 μM was added to each well. Plates were incubated until the signal stabilized and then the fluorescence signal of each well was measured in an Analyst GT microplate reader. The percentage increase in apoptotic cells was calculated by comparison of the fluorescence reading obtained from treated versus control cells.

Work on `COc1cccc(COc2nc(N3CCN(C4(C)CC4)CC3)ncc2Sc2ccc(C(N)=O)cc2)c1` [compound 311, 4-((4-((3-Methoxybenzyl)oxy)-2-(4-(1-methylcyclopropyl)piperazin-1-yl)pyrimidin-5-yl)thio)benzamide] yielded an EC50 of at least 1200 nM.
For `CC(=O)c1ccc(Sc2cnc(N3CCN(C)CC3)nc2OCc2ccccc2)s1` [compound 30, 1-(5-((4-(Benzyloxy)-2-(4-methylpiperazin-1-yl)pyrimidin-5-yl)thio)thiophen-2-yl)ethanone], the EC50 was 400 to 1000 nM.
`C#CCN1CCN(c2ncc(Sc3ccc(C(N)=O)c(C(F)(F)F)c3)c(OCc3cccc(I)c3)n2)CC1` [compound 357, 4-((4-((3-Iodobenzyl)oxy)-2-(4-(prop-2-yn-1-yl)piperazin-1-yl)pyrimidin-5-yl)thio)-2-(trifluoromethyl)benzamide] was tested, and the EC50 was 200 to 400 nM.
With `CN1CCN(c2ncc(Sc3ccc(C(N)=O)c(C(F)(F)F)c3)c(OCc3cc(Cl)ccc3F)n2)CC1` [compound 133, 4-((4-((5-Chloro-2-fluorobenzyl)oxy)-2-(4-methylpiperazin-1-yl)pyrimidin-5-yl)thio)-2-(trifluoromethyl)benzamide] the EC50 was under 200 nM.
Compound `CN1CCN(c2ncc(Sc3ccc(C(N)=O)c(C(F)(F)F)c3)c(OCc3cccc(Cl)c3)n2)CC1` [compound 131, 4-((4-((3-Chlorobenzyl)oxy)-2-(4-methylpiperazin-1-yl)pyrimidin-5-yl)thio)-2-(trifluoromethyl)benzamide] has an EC50 of under 200 nM.
`NC(=O)c1ccc(Sc2cnc(N3CCN(Cc4ccco4)CC3)nc2OCc2cccc(Cl)c2)cc1C(F)(F)F` [compound 228, 4-((4-((3-Chlorobenzyl)oxy)-2-(4-(furan-2-ylmethyl)piperazin-1-yl)pyrimidin-5-yl)thio)-2-(trifluoromethyl)benzamide] showed an EC50 of under 200 nM.
In the case of `CN1CCN(c2ncc(Sc3ccc(C(N)=O)c(C(F)(F)F)c3)c(OCc3cccc(N(C)C)c3)n2)CC1` [compound 139, 4-((4-((3-(Dimethylamino)benzyl)oxy)-2-(4-methylpiperazin-1-yl)pyrimidin-5-yl)thio)-2-(trifluoromethyl)benzamide], the EC50 is reported as under 200 nM.
`COc1cccc(COc2nc(N3CCN([C@H](C)C4CC4)CC3)ncc2Sc2ccc(C(N)=O)cc2)c1` [compound 317, (R)-4-((2-(4-(1-Cyclopropylethyl)piperazin-1-yl)-4-((3-methoxybenzyl)oxy)pyrimidin-5-yl)thio)benzamide] gave an EC50 of at least 1200 nM.
`CN1CCN(c2ncc(Sc3ccc(C(N)=O)c(I)c3)c(OCc3ccccc3)n2)CC1` [compound 80, 4-((4-(Benzyloxy)-2-(4-methylpiperazin-1-yl)pyrimidin-5-yl)thio)-2-iodobenzamide] showed an EC50 of 400 to 1000 nM.
For `C#CCCCN1CCN(c2ncc(Sc3ccc(C(N)=O)cc3)c(OCc3cccc(OC)c3)n2)CC1` [190k, 4-((4-((3-Methoxybenzyl)oxy)-2-(4-(pent-4-yn-1-yl)piperazin-1-yl)pyrimidin-5-yl)thio)benzamide], the EC50 was under 200 nM.
`CN1CCN(c2ncc(Sc3ccc(C(=O)NCN4CCCC4)cc3)c(OCc3ccccc3)n2)CC1` [compound 92, 4-((4-(Benzyloxy)-2-(4-methylpiperazin-1-yl)pyrimidin-5-yl)thio)-N-(pyrrolidin-1-ylmethyl)benzamide] was tested, and the EC50 was 400 to 1000 nM.
In the case of `COc1cccc(COc2nc(N3CCN(C)CC3)ncc2Sc2ccc(C(N)=O)c(Cl)c2)n1` [compound 123, 2-Chloro-4-((4-((6-methoxypyridin-2-yl)methoxy)-2-(4-methylpiperazin-1-yl)pyrimidin-5-yl)thio)benzamide], the EC50 is reported as 200 to 400 nM.
In the case of `CN1CCN(c2ncc(Sc3ccc(C(N)=O)cc3)c(OCc3cccc(-n4cccn4)c3)n2)CC1` [100f, 4-((4-((3-(1H-Pyrazol-1-yl)benzyl)oxy)-2-(4-methylpiperazin-1-yl)pyrimidin-5-yl)thio)benzamide], the EC50 is reported as 400 to 1000 nM.
`CN1CCN(c2ncc(Sc3cccc(C=O)c3)c(OCc3ccccc3)n2)CC1` [compound 43, 3-((4-(Benzyloxy)-2-(4-methylpiperazin-1-yl)pyrimidin-5-yl)thio)benzaldehyde] gave an EC50 of 400 to 1000 nM.
Work on `CN1CCN(c2ncc(Sc3ccc(C(N)=O)c(C(F)(F)F)c3)c(OCc3ccccc3)n2)CC1` [compound 70, 4-((4-(Benzyloxy)-2-(4-methylpiperazin-1-yl)pyrimidin-5-yl)thio)-2-(trifluoromethyl)benzamide] yielded an EC50 of under 200 nM.
Compound `CN(C)[C@@H]1CCN(c2ncc(Sc3ccc(C(N)=O)cc3)c(OCc3cccc(Cl)c3)n2)C1` [compound 365, (R)-4-((4-((3-Chlorobenzyl)oxy)-2-(3-(dimethylamino)pyrrolidin-1-yl)pyrimidin-5-yl)thio)benzamide] has an EC50 of 200 to 400 nM.
`COc1ccc(Sc2cnc(N3CCN(C)CC3)nc2OCc2ccccc2)c(N)c1` [compound 62, 2-((4-(Benzyloxy)-2-(4-methylpiperazin-1-yl)pyrimidin-5-yl)thio)-5-methoxyaniline] showed an EC50 of 400 to 1000 nM.
For `Cc1cc(C(N)=O)ccc1Sc1cnc(N2CCN(C)CC2)nc1OCc1ccccc1` [compound 73, 4-((4-(Benzyloxy)-2-(4-methylpiperazin-1-yl)pyrimidin-5-yl)thio)-3-methylbenzamide], the EC50 was 1000 to 1200 nM.
Work on `CN1CCN(c2ncc(Sc3ccc(C(N)=O)c(Cl)c3)c(OCc3cccc(O)c3)n2)CC1` [compound 122, 2-Chloro-4-((4-((3-hydroxybenzyl)oxy)-2-(4-methylpiperazin-1-yl)pyrimidin-5-yl)thio)benzamide] yielded an EC50 of 200 to 400 nM.
`COc1cc(F)cc(COc2nc(N3CCN(C)CC3)ncc2Sc2ccc(C(N)=O)c(Cl)c2)c1` [compound 110, 2-Chloro-4-((4-((3-fluoro-5-methoxybenzyl)oxy)-2-(4-methylpiperazin-1-yl)pyrimidin-5-yl)thio)benzamide] gave an EC50 of 200 to 400 nM.
`CCc1cccc(COc2nc(N3CCN(C)CC3)ncc2Sc2ccc(C(N)=O)c(C(F)(F)F)c2)c1` [compound 333, 4-((4-((3-Ethylbenzyl)oxy)-2-(4-methylpiperazin-1-yl)pyrimidin-5-yl)thio)-2-(trifluoromethyl)benzamide] showed an EC50 of 1000 to 1200 nM.
Work on `CN(C)c1cccc(COc2nc(N3CCN(CC4CC4)CC3)ncc2Sc2ccc(C(N)=O)c(C(F)(F)F)c2)c1` [compound 343, 4-((2-(4-(Cyclopropylmethyl)piperazin-1-yl)-4-((3-(dimethylamino)benzyl)oxy)pyrimidin-5-yl)thio)-2-(trifluoromethyl)benzamide] yielded an EC50 of at least 1200 nM.
With `CN1CCN(c2ncc(Sc3ccc(C(=O)O)cc3)c(OCc3ccccc3)n2)CC1` [compound 81, 4-((4-(Benzyloxy)-2-(4-methylpiperazin-1-yl)pyrimidin-5-yl)thio)benzoic acid] the EC50 was 1000 to 1200 nM.
`CN(C)C1CN(c2ncc(Sc3ccc(C(N)=O)c(C(F)(F)F)c3)c(OCc3cccc(Cl)c3)n2)C1` [compound 225, 4-((4-((3-Chlorobenzyl)oxy)-2-(3-(dimethylamino)azetidin-1-yl)pyrimidin-5-yl)thio)-2-(trifluoromethyl)benzamide] was tested, and the EC50 was 200 to 400 nM.
For `C#CCN1CCN(c2ncc(Sc3ccc(C(N)=O)cc3)c(OCc3cccc(N(C)C)c3)n2)CC1` [compound 336, 4-((4-((3-(Dimethylamino)benzyl)oxy)-2-(4-(prop-2-yn-1-yl)piperazin-1-yl)pyrimidin-5-yl)thio)benzamide], the EC50 was under 200 nM.
`COc1ccc(F)c(COc2nc(N3CCN(C)CC3)ncc2Sc2ccc(N)nc2)c1` [compound 157, 5-((4-((2-Fluoro-5-methoxybenzyl)oxy)-2-(4-methylpiperazin-1-yl)pyrimidin-5-yl)thio)pyridin-2-amine] was tested, and the EC50 was under 200 nM.
For `CN1CCN(c2ncc(Sc3ccc(C(=O)N(C)C)cc3)c(OCc3ccccc3)n2)CC1` [compound 84, 4-((4-(Benzyloxy)-2-(4-methylpiperazin-1-yl)pyrimidin-5-yl)thio)-N,N-dimethylbenzamide], the EC50 was 200 to 400 nM.
For `CC(C)N1CCN(c2ncc(Sc3ccc(C(N)=O)cc3)c(OCc3cccc(N(C)C)c3)n2)CC1` [185b, 4-((4-((3-(Dimethylamino)benzyl)oxy)-2-(4-isopropylpiperazin-1-yl)pyrimidin-5-yl)thio)benzamide], the EC50 was 1000 to 1200 nM.
`CN1CCN(c2ncc(Sc3ccc(C(N)=O)cc3)c(OCc3cccc(N)c3)n2)CC1` [100x, 4-((4-((3-Aminobenzyl)oxy)-2-(4-methylpiperazin-1-yl)pyrimidin-5-yl)thio)benzamide] was tested, and the EC50 was under 200 nM.
`CN1CCN(c2ncc(Sc3ccc(C(N)=O)cc3)c(NCc3ccccc3)n2)CC1` [compound 102, 4-((4-(Benzylamino)-2-(4-methylpiperazin-1-yl)pyrimidin-5-yl)thio)benzamide] gave an EC50 of 200 to 400 nM.
In the case of `CC(=O)c1cccc(COc2nc(N3CCN(C)CC3)ncc2Sc2ccc(C(N)=O)cc2)c1` [100q, 4-((4-((3-Acetylbenzyl)oxy)-2-(4-methylpiperazin-1-yl)pyrimidin-5-yl)thio)benzamide], the EC50 is reported as 400 to 1000 nM.
`CN1CCN(c2ncc(Sc3cccc(C#N)c3)c(OCc3ccccc3)n2)CC1` [compound 47, 3-((4-(Benzyloxy)-2-(4-methylpiperazin-1-yl)pyrimidin-5-yl)thio)benzonitrile] showed an EC50 of 400 to 1000 nM.
Compound `COc1c(F)ccc(COc2nc(N3CCN(C)CC3)ncc2Sc2ccc(C(N)=O)c(Cl)c2)c1F` [compound 112, 2-Chloro-4-((4-((2,4-difluoro-3-methoxybenzyl)oxy)-2-(4-methylpiperazin-1-yl)pyrimidin-5-yl)thio)benzamide] has an EC50 of under 200 nM.
In the case of `C#CCN1CCN(c2ncc(Sc3ccc(C(N)=O)cc3)c(OCc3cccc(Cl)c3)n2)CC1` [compound 348, 4-((4-((3-Chlorobenzyl)oxy)-2-(4-(prop-2-yn-1-yl)piperazin-1-yl)pyrimidin-5-yl)thio)benzamide], the EC50 is reported as 400 to 1000 nM.
